How the values were obtained:
[1] = tested on: RAW cells; assay: Cyclic-AMP production in RAW cells; type: cell-based, murine; conditions: FIG. 8
[2] = tested on: Macrophage-like RAW cells; assay: Structure function: inhibition of LPS (4 ng/ml)-stimulated TNF release; type: cell-based, murine; conditions: full range of the dose-response curve

| Substance | stimulation of cAMP production [1] | activity in suppressing TNF release relative to MECO-1 [2] |
| --- | --- | --- |
| adrenocorticotropic hormone (SYSMEHFRWGKPVGKKRRPVKVYPNGAEDESAEAFPLEF; mammalian melanocortin ACTH (1-39)) [obtained from Bachem Bioscience] | dose-dependent fashion | – |
| EFG-2: C-terminus of human mitochondrial EF-G2: TLTSGSATFALELSTYQAMNPQDQNTLLNRRSGLT (listed as Homo sapiens) | – | as active as MECO-1 |

Source: patent publication US8080632B2, “Peptide mimics of melanocyte stimulating hormone” (The Feinstein Institute for Medical Research, priority 2005, dated 2011)
